# Experimental data taken from patent US9927437B2, “Treating neurodegenerative disease” (THE BRIGHAM AND WOMEN'S HOSPITAL, INC., priority 2013, dated 2018).
# “Also recorded” adds a separate entry of the source.
# Assays:
# human primary astrocytes = experiment: Activation of human primary astrocytes with IL-1β or poly(I:C), qPCR; type: cell-based; conditions: PDMP 25 μM; IL-1β 10 ng/ml or Poly (I:C) 10 μg/ml, 6 h
# From the text: FIG. 6a-d. […] Autopsy samples were obtained from lesions (n=10) or NAWM (n=5) from MS, non-MS CNS inflammatory diseases (NMSCID, including viral encephalitis, Rasmussen's encephalitis and ADEM, n=5) patients and healthy controls (n=6). (a) qPCR analysis of B4GALT5 and B4GALT6 mRNA expression in CNS samples relative to ACTB. (b) IF analysis of B4GALT6, CCL2 and iNOS in GFAP+ astrocytes in NAWM and Lesion of MS patients. (c) LacCer levels determined in CNS samples, relative to protein content. Statistical analysis by one-way ANOVA, followed by Tukey post-hoc analysis. (d) Primary human astrocytes were pre-treated with PDMP (25 μM) or vehicle, and activated with IL-1β (10 ng/ml) or Poly (I:C) (10 μg/ml) or left untreated (control). RNA was harvested 6 h later and the expression of CCL2, CCL5, COX2, IL6, NOS2, and TLR2 was analyzed by qPCR relative to ACTB in 3 independent experiments. Statistical analysis by Student's t-test. Data presented are mean and s.e.m. *P<0.05, **P<0.01 and ***P<0.001.
# Human fetal astrocytes were isolated as previously described^57 from human CNS tissue from fetuses at 17-23 wk of gestation obtained from the Human Fetal Tissue Repository (Albert Einstein College of Medicine, Bronx, N.Y.) following Canadian Institutes for Health Research-approved guidelines. Cultures were >90% pure.
# C57BL/6 mice = experiment: EAE in C57BL/6 mice; type: in vivo; conditions: 10 μg per mouse with MOG35-55 at induction and i.p. every 3 days
# choroid plexus cells = experiment: Transcriptional response of choroid plexus cells to LPS/IFNγ; type: cell-based, mouse; conditions: LacCer 10 μM 1 h, LPS/IFNγ 6 h
# Method: FIGS. 15a-b. […] Leptomeningeal phagocytes (a) and choroid plexus cells (b) were pre-treated for 1 h with LacCer (10 μM), or vehicle control (vehicle), followed by activation with LPS/IFNγ for 6 h, or left un-treated (control, Con). mRNA expression was determined by nCounter Nanostring analysis. Representative data of two independent experiments.
# Mouse primary choroid plexus cells were prepared as described^55,56 with minor modifications. In brief, the choroid plexus was removed from 1- to 3-day-old neonatal mice, digested with 1% collagenase for 20 min at 37° C., and then dispersed into a single-cell level. The cell suspension was washed in culture medium for choroid plexus cells [Dulbecco's modified Eagle medium/Ham's F12 (Invitrogen) supplemented with 10% foetal calf serum (Sigma-Aldrich), 1 mM 1-glutamine, 1 mM sodium pyruvate, 100 U/ml penicillin, […] streptomycin, […] insulin, […] Ara-C) and cultured (2.5×10^5 cells/well) at 37° C., 5% CO2 in poly-D-lysine coated 24-well plates. After 24 h, the medium was changed, and the cells were either left untreated or treated as described.
Compound,"CCL2, CCL5, COX2, IL6, NOS2 and TLR2 expression (human primary astrocytes)",EAE clinical scores (C57BL/6 mice),transcriptional response to activation of choroid plexus cells (choroid plexus cells)
"CCCCCCCCCC(=O)N[C@H](CN1CCOCC1)[C@H](O)c1ccccc1 [PDMP, D-threo-1-phenyl-2-decanoylamino-3-morpholino-1-propanol]",significant decrease,–,–
lactosylceramide [LacCer],–,significant worsening of EAE,did not affect the transcriptional response; also recorded: does not affect the transcriptional response
